The source of these data is US10683292B2, “Purine and 3-deazapurine analogues as choline kinase inhibitors” (NERVIANO MEDICAL SCIENCES S.R.L., priority 2016, dated 2020).

pIC50: −log10 of the molar value. Where only a bound is given, the exact number is not on record here.

For one assay, the target named is T1, hChoKβ FL (Homo sapiens, UniProt Q9Y259).
T1 construct: hChoKβ full length (FL), corresponding to aminoacids 2-395; GST (N, cleaved yes); Prescission Protease recognition site (N, cleaved yes); made in house; host or cells: Escherichia coli BL21pLysS (DE3)
The assay is described as follows: Biochemical kinase inhibition assay (Kinase-Glo Luminescent Kinase Assay) on hChoKβ FL. Conditions: ATP 5 μM, choline 20 μM, 60 minutes at rt; read-out: IC50 ChoKβ.

In another assay the target is T2, Δ49N-hChoKα (Homo sapiens, UniProt P35790).
T2 construct: cDNA fragment 362-1534, corresponding to aminoacids 50-457; GST (N, cleaved yes); Prescission Protease recognition site (N, cleaved yes); made in house; host or cells: Escherichia coli BL21pLysS (DE3)
The assay is described as follows: Biochemical kinase inhibition assay (Kinase-Glo Luminescent Kinase Assay) on Δ49N-hChoKα. The conditions noted are these: ATP 5 μM, choline 5 μM, 60 minutes at rt; read-out: IC50 ChoKα.

T1 sequence (Q9Y259 2-395): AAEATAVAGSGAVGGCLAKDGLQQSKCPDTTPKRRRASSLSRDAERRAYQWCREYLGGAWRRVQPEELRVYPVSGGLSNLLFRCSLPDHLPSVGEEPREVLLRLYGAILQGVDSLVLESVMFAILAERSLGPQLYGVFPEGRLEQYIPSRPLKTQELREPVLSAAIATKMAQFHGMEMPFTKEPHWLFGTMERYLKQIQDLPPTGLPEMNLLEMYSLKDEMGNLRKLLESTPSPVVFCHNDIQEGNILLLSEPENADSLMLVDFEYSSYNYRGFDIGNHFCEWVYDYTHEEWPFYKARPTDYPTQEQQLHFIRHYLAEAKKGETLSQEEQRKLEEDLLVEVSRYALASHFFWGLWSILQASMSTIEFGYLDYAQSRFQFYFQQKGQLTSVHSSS
T2 sequence (P35790 50-457, stated change not applied): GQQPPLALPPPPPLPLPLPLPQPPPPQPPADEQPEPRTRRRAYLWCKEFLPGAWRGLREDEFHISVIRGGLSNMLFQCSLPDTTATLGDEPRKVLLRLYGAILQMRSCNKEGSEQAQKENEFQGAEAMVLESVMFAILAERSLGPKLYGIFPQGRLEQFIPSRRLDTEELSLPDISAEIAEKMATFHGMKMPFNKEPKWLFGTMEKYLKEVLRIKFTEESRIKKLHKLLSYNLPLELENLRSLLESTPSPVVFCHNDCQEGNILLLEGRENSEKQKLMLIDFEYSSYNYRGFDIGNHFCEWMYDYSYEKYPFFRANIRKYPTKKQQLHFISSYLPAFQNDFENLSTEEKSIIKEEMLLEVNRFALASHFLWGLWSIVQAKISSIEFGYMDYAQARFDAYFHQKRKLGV
Method for hChoKβ FL: (§1) The biochemical activity of compounds against Δ49N-ChoKα and ChoKβ FL were determined using the Kinase-Glo™ Luminescent Kinase Assay (Promega cat. V6711).
(§2) Compounds were 3-fold serially diluted from 10 to 0.0005 μM, then incubated for 60 minutes at rt in the presence of ATP 5 μM, choline (5 μM for ChoKα and 20 μM for ChoKβ) and enzyme in a final volume of 19 μL of kinase buffer (50 mM Hepes pH 7.5, 10 mM MgCl2, 1 mM DTT, 3 μM Na3VO4 and 0.2 mg/mL BSA). The final concentration of DMSO was 1%.
(§3) At the end of the incubation, an amount of 19 μL of KinaseGlo Reagent was added to each well to stop the reaction and after 30 minutes the luminescence signal was measured using ViewLux reader (Perkin Elmer).
(§4) The data per each molecule are analyzed by an internally customized version of the SW package “Assay Explorer” which provides sigmoidal fittings of the ten-dilution curves for IC50 determination using a 4 parameter logistic equation: y=bottom+(top−bottom)/(1+10^((log IC50−x)*slope)) where x is the logarithm of the inhibitor concentration, y is the response; y starts at bottom and goes to top with a sigmoid shape.
Method for Δ49N-hChoKα: as §1, §2, §3, §4

Take `COc1cccc(NC(=O)[C@H]2CC[C@@H](n3cnc4c(N)nc(-c5ccncc5)nc43)CC2)c1` [cpd 9, cis-4-[6-amino-2-(pyridin-4-yl)-9H-purin-9-yl]-N-(3-methoxyphenyl)cyclohexanecarboxamide]: the pIC50 at hChoKβ FL is below 5.00.

As for `COc1cccc(NC(=O)[C@H]2CC[C@@H](n3cnc4c(N)nc(-c5ccnc(F)c5)nc43)CC2)c1` [cpd 15, cis-4-[6-amino-2-(2-fluoropyridin-4-yl)-9H-purin-9-yl]-N-(3-methoxyphenyl)cyclohexanecarboxamide], the pIC50 at Δ49N-hChoKα was 6.38.

Consider `COc1cccc(NC(=O)[C@H]2CC[C@@H](n3cnc4c(N)nc(-c5ccc(F)nc5)nc43)CC2)c1` [cpd 19, cis-4-[6-amino-2-(6-fluoropyridin-3-yl)-9H-purin-9-yl]-N-(3-methoxyphenyl)cyclohexanecarboxamide], for which the negative logarithm of the IC50 (pIC50) on Δ49N-hChoKα is 6.10.

Regarding `COc1cccc(NC(=O)[C@H]2CC[C@@H](n3cnc4c(N)nc(-c5ccnc(OC)c5)nc43)CC2)c1` [cpd 21, cis-4-[6-amino-2-(2-methoxypyridin-4-yl)-9H-purin-9-yl]-N-(3-methoxyphenyl)cyclohexanecarboxamide], on Δ49N-hChoKα, the negative-log IC50 (pIC50) is 6.05.

In the case of `COc1cccc(NC(=O)[C@H]2CC[C@@H](n3cnc4c(N)nc(-c5ccc(C(=O)Nc6ccc(CN7CCN(C)CC7)cc6)cc5)nc43)CC2)c1` [cpd 29, 4-(6-amino-9-{cis-4-[(3-methoxyphenyl)carbamoyl]cyclohexyl}-9H-purin-2-yl)-N-{4-[(4-methylpiperazin-1-yl)methyl]phenyl}benzamide], the negative logarithm of the IC50 (pIC50) on Δ49N-hChoKα was 6.59; at hChoKβ FL it was 5.73.

Regarding `COc1cccc(NC(=O)[C@H]2CC[C@@H](n3cnc4c(N)nc(-c5cccc(C(=O)Nc6ccc(CN7CCN(C)CC7)cc6)c5)nc43)CC2)c1` [cpd 30, 3-(6-amino-9-{cis-4-[(3-methoxyphenyl)carbamoyl]cyclohexyl}-9H-purin-2-yl)-N-{4-[(4-methylpiperazin-1-yl)methyl]phenyl}benzamide], the values for the negative logarithm of the IC50 (pIC50) at Δ49N-hChoKα and on hChoKβ FL were 6.52 and below 5.00, respectively.

For the compound `COc1cccc(NC(=O)[C@H]2CC[C@@H](n3cnc4c(N)nc(-c5cccc(C(=O)Nc6ccc(CN7CCC(N(C)C)CC7)cc6)c5)nc43)CC2)c1` [cpd 31, 3-(6-amino-9-{cis-4-[(3-methoxyphenyl)carbamoyl]cyclohexyl}-9H-purin-2-yl)-N-(4-{[4-(dimethylamino)piperidin-1-yl]methyl}phenyl)benzamide], the values for the pIC50 on Δ49N-hChoKα and on hChoKβ FL were 7.40 and below 5.00, respectively.

Take `COc1cccc(NC(=O)[C@H]2CC[C@@H](n3cnc4c(N)nc(-c5ccc(C(=O)Nc6ccc(CN7CCC(N(C)C)CC7)cc6)cc5)nc43)CC2)c1` [cpd 33, 4-(6-amino-9-{cis-4-[(3-methoxyphenyl)carbamoyl]cyclohexyl}-9H-purin-2-yl)-N-(4-{[4-(dimethylamino)piperidin-1-yl]methyl}phenyl)benzamide]: the negative logarithm of the IC50 (pIC50) is 7.68 on Δ49N-hChoKα and 5.34 at hChoKβ FL.

Turning to `CN1CCN(Cc2ccc(NC(=O)Cc3ccc(NC(=O)[C@H]4CC[C@@H](n5cnc6c(N)nc(Cl)nc65)CC4)cc3)cc2C(F)(F)F)CC1` [cpd 35, cis-4-(6-amino-2-chloro-9H-purin-9-yl)-N-{4-[2-({4-[(4-methylpiperazin-1-yl)methyl]-3-(trifluoromethyl)phenyl}amino)-2-oxoethyl]phenyl}cyclohexanecarboxamide], the pIC50 on Δ49N-hChoKα was 7.89; at hChoKβ FL it was 6.37.

Consider `CN1CCN(Cc2ccc(NC(=O)Cc3ccc(NC(=O)[C@H]4CC[C@@H](n5cnc6c(N)nc(Cl)nc65)CC4)cc3)cc2)CC1` [cpd 36, cis-4-(6-amino-2-chloro-9H-purin-9-yl)-N-{4-[2-({4-[(4-methylpiperazin-1-yl)methyl]phenyl}amino)-2-oxoethyl]phenyl}cyclohexanecarboxamide], for which the results for the pIC50 at Δ49N-hChoKα and on hChoKβ FL were 7.28 and 5.87, respectively.

As to `COc1ccc(NC(=O)[C@H]2CC[C@@H](n3cnc4c(N)nc(-c5ccncc5)nc43)CC2)cc1OC` [cpd 37, cis-4-[6-amino-2-(pyridin-4-yl)-9H-purin-9-yl]-N-(3,4-dimethoxyphenyl)cyclohexanecarboxamide], the pIC50 on Δ49N-hChoKα is 6.07; on hChoKβ FL, below 5.00.

As to `COc1cccc(NC(=O)[C@H]2CC[C@@H](n3cnc4c(N)nc(I)nc43)CC2)c1` [cpd 41, cis-4-(6-amino-2-iodo-9H-purin-9-yl)-N-(3-methoxyphenyl)cyclohexanecarboxamide], the pIC50 at Δ49N-hChoKα is 6.36; on hChoKβ FL, below 5.00.

On to `C#Cc1nc(N)c2ncn([C@H]3CC[C@@H](C(=O)Nc4cccc(OC)c4)CC3)c2n1` [cpd 45, cis-4-(6-amino-2-ethynyl-9H-purin-9-yl)-N-(3-methoxyphenyl)cyclohexanecarboxamide], for which the negative logarithm of the IC50 (pIC50) was 6.71 at Δ49N-hChoKα and 5.30 at hChoKβ FL.

In the case of `Cc1cccc(NC(=O)[C@H]2CC[C@@H](n3cnc4c(N)nc(Cl)nc43)CC2)c1` [cpd 48, cis-4-(6-amino-2-chloro-9H-purin-9-yl)-N-(3-methylphenyl)cyclohexanecarboxamide], the values for the pIC50 at Δ49N-hChoKα and at hChoKβ FL were 6.55 and below 5.00, respectively.

On to `Cc1cccc(NC(=O)[C@H]2CC[C@@H](n3cnc4c(N)nc(-c5ccncc5)nc43)CC2)c1` [cpd 50, cis-4-[6-amino-2-(pyridin-4-yl)-9H-purin-9-yl]-N-(3-methylphenyl)cyclohexanecarboxamide], for which the pIC50 at Δ49N-hChoKα is 6.51; on hChoKβ FL, below 5.00.

Turning to `Nc1nc(Cl)nc2c1ncn2[C@H]1CC[C@@H](C(N)=O)CC1` [cpd 53, cis-4-(6-amino-2-chloro-9H-purin-9-yl)cyclohexanecarboxamide], the negative logarithm of the IC50 (pIC50) at Δ49N-hChoKα was 6.07; on hChoKβ FL it was below 5.00.

With `COc1cccc(NC(=O)[C@H]2CC[C@@H](n3cnc4c(N)nc(C#CCO)nc43)CC2)c1` [cpd 60, cis-4-[6-amino-2-(3-hydroxyprop-1-yn-1-yl)-9H-purin-9-yl]-N-(3-methoxyphenyl)cyclohexanecarboxamide], the results for the pIC50 on Δ49N-hChoKα and at hChoKβ FL were 6.07 and below 5.00, respectively.

For the compound `Nc1nc(Cl)nc2c1ncn2[C@H]1CC[C@@H](C(=O)Nc2nnc(C(F)(F)F)s2)CC1` [cpd 64, cis-4-(6-amino-2-chloro-9H-purin-9-yl)-N-[5-(trifluoromethyl)-1,3,4-thiadiazol-2-yl]cyclohexanecarboxamide], the negative logarithm of the IC50 (pIC50) at Δ49N-hChoKα was 6.71; on hChoKβ FL, below 5.00.

In the case of `Cc1csc(NC(=O)[C@H]2CC[C@@H](n3cnc4c(N)nc(I)nc43)CC2)n1` [cpd 70, cis-4-(6-amino-2-iodo-9H-purin-9-yl)-N-(4-methyl-1,3-thiazol-2-yl)cyclohexanecarboxamide], the figures for the pIC50 at Δ49N-hChoKα and at hChoKβ FL were 7.47 and below 5.00, respectively.

On to `Nc1nc(Cl)nc2c1ncn2[C@H]1CC[C@@H](C(=O)Nc2ccc(C(=O)NC3CCCCC3)cc2)CC1` [cpd 71, 4-({[cis-4-(6-amino-2-chloro-9H-purin-9-yl)cyclohexyl]carbonyl}amino)-N-cyclohexylbenzamide], for which the pIC50 on Δ49N-hChoKα is 6.43; at hChoKβ FL it was 5.55.

For the compound `Nc1nc(Cl)nc2c1ncn2[C@H]1CC[C@@H](C(=O)Nc2nccs2)CC1` [cpd 72, cis-4-(6-amino-2-chloro-9H-purin-9-yl)-N-(1,3-thiazol-2-yl)cyclohexanecarboxamide], the figures for the negative logarithm of the IC50 (pIC50) at Δ49N-hChoKα and on hChoKβ FL were 7.21 and below 5.00, respectively.

Turning to `C#Cc1nc(N)c2ncn([C@H]3CC[C@@H](C(=O)Nc4nc(C)cs4)CC3)c2n1` [cpd 77, cis-4-(6-amino-2-ethynyl-9H-purin-9-yl)-N-(4-methyl-1,3-thiazol-2-yl)cyclohexanecarboxamide], the pIC50 on Δ49N-hChoKα is 7.74; at hChoKβ FL, 5.22.

On to `Cc1csc(NC(=O)[C@H]2CC[C@@H](n3cnc4c(N)nc(-c5ccncc5)nc43)CC2)n1` [cpd 81, cis-4-[6-amino-2-(pyridin-4-yl)-9H-purin-9-yl]-N-(4-methyl-1,3-thiazol-2-yl)cyclohexanecarboxamide], for which the results for the pIC50 at Δ49N-hChoKα and at hChoKβ FL were 6.90 and below 5.00, respectively.

As for `COc1cccc(NC(=O)[C@H]2CC[C@@H](n3cnc4c(N)nc(OC)nc43)CC2)c1` [cpd 83, cis-4-(6-amino-2-methoxy-9H-purin-9-yl)-N-(3-methoxyphenyl)cyclohexanecarboxamide], the pIC50 is 6.37 at Δ49N-hChoKα and below 5.00 on hChoKβ FL.

With `COc1cccc2sc(NC(=O)[C@H]3CC[C@@H](n4cnc5c(N)nc(Cl)nc54)CC3)nc12` [cpd 91, cis-4-(6-amino-2-chloro-9H-purin-9-yl)-N-(4-methoxy-1,3-benzothiazol-2-yl)cyclohexanecarboxamide], the pIC50 at hChoKβ FL was 5.13.

With `COc1ccc2nc(NC(=O)[C@H]3CC[C@@H](n4cnc5c(N)nc(Cl)nc54)CC3)sc2c1` [cpd 92, cis-4-(6-amino-2-chloro-9H-purin-9-yl)-N-(6-methoxy-1,3-benzothiazol-2-yl)cyclohexanecarboxamide], on hChoKβ FL, the negative logarithm of the IC50 (pIC50) was 5.30.

As to `NC(=O)Cc1ccc2nc(NC(=O)[C@H]3CC[C@@H](n4cnc5c(N)nc(Cl)nc54)CC3)sc2c1` [cpd 177, cis-4-(6-amino-2-chloro-9H-purin-9-yl)-N-[6-(2-amino-2-oxoethyl)-1,3-benzothiazol-2-yl]cyclohexanecarboxamide], the pIC50 on hChoKβ FL is 5.42.

As to `Nc1nc(Cl)nc2c1ncn2[C@H]1CC[C@@H](C(=O)Nc2nc3c(s2)CN(C2CC2)CC3)CC1` [cpd 184, cis-4-(6-amino-2-chloro-9H-purin-9-yl)-N-(5-cyclopropyl-4,5,6,7-tetrahydro[1,3]thiazolo[5,4-c]pyridin-2-yl)cyclohexanecarboxamide], the pIC50 on hChoKβ FL was 5.17.

Take `CC1(C)Cc2nc(NC(=O)[C@H]3CC[C@@H](n4cnc5c(N)nc(F)nc54)CC3)sc2C(C)(C)N1` [cpd 190, cis-4-(6-amino-2-fluoro-9H-purin-9-yl)-N-(4,4,6,6-tetramethyl-4,5,6,7-tetrahydro[1,3]thiazolo[5,4-c]pyridin-2-yl)cyclohexanecarboxamide]: at hChoKβ FL, the pIC50 was below 5.00.
